Values joined by “and” are separate entries in the source; they are usually repeats but may differ in a detail not shown here. Equal entries are not always repeated. Where two headings read alike, the source gives them in different places.
What was measured:
P-388 leukemia = assay: antitumor activity, intravenously implanted P-388 leukemia; type: in vivo, mice
toxicity in mice = details: mouse, in vivo
[1] = iv days 1,4,7, doses as MST lines, same order
[2] = ip qd 1→9, doses as T/C lines, same order
[3] = ip qd 1→11, doses as T/C lines, same order

Procedure for B16 melanoma: (§1) Lymphocytic leukemia P-388, lymphoid leukemia L-1210, melanotic melanoma B16 and Lewis lung carcinoma were implanted intraperitoneally into male BDF1 mice at an inoculum size of 10^6, 10^5, 5×10^5 and 10^6 cells per mouse, respectively. Graded doses of test compounds were administered to the mice intraperitoneally 24 hours after the tumor inoculation.
(§2) Death or survival of the treated and non-treated mice was recorded daily, and the median survival time (MST) was calculated for each of the test (T) and control (C) groups.
Procedure for Lewis lung carcinoma: as §1, §2

COc1cccc2c1C(=O)c1c(O)c3c(c(O)c1C2=O)C[C@@](O)(C(=O)CO)C[C@@H]3O[C@H]1C[C@H](N)[C@H](O)[C@H](C)O1 [Adriamycin, adriamycin]
T/C (P-388 leukemia; iv days 1,4,7, 1 mg/kg/day): 100% | T/C (P-388 leukemia; iv days 1,4,7, 10 mg/kg/day): 100% | Survivors on day 5 (P-388 leukemia; [1]): 0/6 and 6/6 | Survivors on day 45 (P-388 leukemia; [1]): 0/6

CO[C@@H]1[C@H](O)C[C@@H](O[C@@H]2C[C@H](Oc3cc4cc5c(c(O)c4c(O)c3C)C(=O)[C@@H](O[C@H]3C[C@@H](O[C@H]4C[C@@H](O[C@H]6C[C@](C)(O)[C@@H](OC(C)=O)[C@H](C)O6)[C@H](O)[C@@H](C)O4)[C@H](O)[C@@H](C)O3)[C@H]([C@H](OC)C(=O)[C@@H](O)[C@@H](C)O)C5)O[C@H](C)[C@@H]2OC(C)=O)O[C@@H]1C [Chromomycin A3, chromomycin A3]
T/C (B16 melanoma; ip qd 1→9, 0.003 mg/kg/day): 109% | Average wt. change on day 5 (B16 melanoma; [2]): +2.2 g | MST (B16 melanoma; [2]): 25.5 days and 23.0 days and 21.0 days and 18.0 days | Survivors on day 5 (B16 melanoma; [2]): 6/6 | Survivors on day 45 (B16 melanoma; [2]): 0/6 | T/C (Lewis lung carcinoma; ip qd 1→11, 0.003 mg/kg/day): 105% | MST (Lewis lung carcinoma; [3]): 21.5 days and 17.0 days and 11.5 days | Survivors on day 5 (Lewis lung carcinoma; [3]): 6/6 | Survivors on day 45 (Lewis lung carcinoma; [3]): 1/6 and 0/5 and 0/6 | Average wt. change on day 5 (Lewis lung carcinoma; mouse, in vivo, ip): +1.7 g | Survivors on day 5 (Lewis lung carcinoma; mouse, in vivo, ip): 5/5 | LD50 (toxicity in mice; ip, LD50, multiple dose (qd 1→9) i.p.): 0.23 mg/kg | LD50 (toxicity in mice; ip, LD50, single dose i.p.): 0.81 mg/kg | LD50 (toxicity in mice; iv, LD50, single dose i.v.): 0.41 mg/kg

From US4675187A, “BBM-1675, a new antibiotic complex” (priority 1985, dated 1987)
